Assay results taken from patent publication US20250025615A1, “NEW DIALYSIS FLUID” (GAMBRO LUNDIA AB, priority 2021, published 2025).

Key:
Format in all cases: cell-based, human
RCC4 renal carcinoma = assay: Example 2: growth in Medium A-C with or without ketones (CellTiter-Glo); conditions: nutrient restricted Medium C, FIG. 11
Experimental: To study the effect of a nutrient restricted ketogenic environment on cancer cell growth in vitro, three different cell culture media were formulated. Medium A was full RPMI1640 medium that the cell lines routinely are cultured in. Medium B was used as an approximation of the conditions found in normal human serum. The levels of glucose, glutamine, serine, glycine and arginine were adjusted to match normal physiological levels found in human serum. These nutrients were selected based on their reported use as energy source and effects on cancer cell metabolic state. Medium C was used to emulate the ketogenic nutrient restricted Cancer Dialysis condition. Here, the levels of the selected nutrients were reduced to half of the physiological levels in Medium B, and the ketone body BOHB was added. […]
All cell lines were purchased from ATCC (ATCC, LGC standards) except for RCC4 that was from Sigma-Aldrich (Merck). […] Optimal seeding density was determined for each cell line in 96-well plates cultured for 3 days in standard cell culture medium. […]
In Medium B, to mimic physiological conditions, the levels of glutamine, serine, glycine, arginine and glucose were set to the median of measured levels in human serum, based on data from the Mayo Clinic Laboratories (https://www.mayocliniclabs.com/test-catalog/Clinical+and+Interpretive/9265). […]

glioma cell line U118MG = assay: Example 2: culture in Medium A-C with BOHB and/or Acac (CellTiter-Glo)
Experimental: (§1) The ketone bodies acetoacetate (Acac), BOHB and acetone are produced by the liver during fasting or starvation. BOHB is the major ketone body in mammals, while Acac constitutes around 20%.
(§2) Cells were maintained in RPMI-1640 medium (31870-025 GIBCO) with the addition of 10% serum, 200 mM L-glutamine and 1% penicillin-streptomycin (PEST) in humidified chambers at 37° C. and 5% CO2. For hypoxic conditions (5% O2), cells were maintained in a Galaxy 14 S CO2 incubator (Eppendorf) where N2 was used to adjust the O2 level to 5%.
(§3) Medium B and C were prepared from RPMI1640 modified medium powder without L-glutamine, glucose and amino acids (R9010-01, US Biological Life Sciences). For 1L medium, 7.4 g powder was dissolved in 900 ml sterile water without heating and 2 g sodium bicarbonate was added. Amino acids listed in Table 5 were added to the same concentration as in full RPMI1640 medium (Table 5). After all additions, the medium was sterilized by filtering through 0.22 um membranes and divided into two bottles.
(§4) To model Cancer Dialysis conditions in Medium C, the levels of these nutrients were reduced to 50% of the physiological levels. As for Medium A, 1% PEST and 10% dialyzed serum were added to Medium B and C. Sodium pyruvate, that is a common addition in cell culture medium, was not present in any of the used media.
(§5) Stock solutions of DL-β-Hydroxybutyric acid sodium salt (H6501, Sigma Aldrich) and Lithium Acetoacetate (A8509, Sigma Aldrich) were prepared in water, sterile filtered, aliquoted and stored at −20° C. Lithium Chloride (L7026, Sigma Aldrich) was used as a control for the addition of Lithium in the Li-Acac.
(§6) CellTiter-Glo Luminescent cell viability assay (Promega) was used as a readout of cell numbers according to the manufacturers' instructions. In experiments shown in FIG. 7-8, double plates were seeded and treated. One set of plates was used for collection of medium for lactate measurement (see below) and the CellTiterGlo-assay. The other set of plates was frozen at −80° C. at the end of the experiment. The frozen plates were intended for the CyQuant cell proliferation assay (Thermo Fisher) that measures the amount of DNA per well. Analysis of the amounts of cells by both CellTiterGlo and CyQuant assays would ensure that effects of the culture conditions on viability or growth rate would not be concealed by simultaneous changes in ATP-levels per cell.
(§7) Next, it was decided to also include Acac in the study and analyze the viability of cells cultured in the presence of BOHB and Acac alone or in combination in Medium A-C. The experiment was performed at 21% and 5% O2. The experiments were made with glioma cell lines A172 and U118MG.
(§8) Being a chiral molecule, BOHB exists as two enantiomers, D-and L-BOHB. D-BOHB is normally produced and metabolized in humans. The BOHB-salt used in this study contains a mixture of 50:50 of D-and L-BOHB. In order to ensure a high presence of the active D-form, the total concentration of BOHB added was increased to 16 mM, giving a level of 8 mM D-BOHB. To keep the total concentration of active ketones constant, 8 mM Acac was used, and for the combination of both ketones, the levels were adjusted to 4 mM Acac and 8 mM BOHB (containing 4 mM D-BOHB).
(§9) The Acac available for in vitro use is in the form of a lithium salt. Since lithium itself can affect the viability of cancer cells [Cohen-Harazi et al., Anticancer Res 2020; 40:3831-3837], 8 mM LiCl was used as a control for the 8 mM Acac data point and 4 mM LiCl was used as a control for the 4 mM Acac/8 mM BOHB data.

glioma cell line A172 = assay: as above; conditions: for growth: normoxic, combined experiment 2-6, 16 mM BOHB or 8 mM Acac added separately, FIG. 9
Experimental: as §1, §2, §3, §4, §5, §6, §7, §8, §9

[1] = test system: RCC4 (renal cell carcinoma); assay: Study 2: cell viability (CellTiter-Glo) in DMEM without sodium pyruvate; conditions: increase in BOHB concentration (0, 4, 12 mM), no pyruvate, 3 d
Experimental: (§10) Cell lines established from human colon carcinoma (HCT15, NCI-H508 and COLO205), renal cell carcinoma (769-P, 786-O and RCC4) and glioblastoma (LN-18, A-172 and U-118 MG) were selected for the analysis. All cell lines were obtained from American Type Culture Collection (ATCC, LGC standards, UK) except for RCC4 and HCT15 that was purchased from Sigma-Aldrich (Merck, Germany). In addition, primary human renal cell carcinoma (RCC) cells isolated from patient nephrectomies were included in the study. The culture conditions were as recommended by American Type Culture Collection (ATCC) were followed, that is to grow cells in DMEM medium with the addition of 1 mM sodium pyruvate, which was also added to the RPMI-1640 medium in order to keep the conditions more similar 769-P, RCC4, LN-18, A-172, U-118 MG and the primary RCC cells were cultured in DMEM high glucose medium, while 786-O HCT15, NCI-H508 and COLO205 were cultured in RPMI-1640 medium according to the recommendations from ATCC. […]
(§11) CellTiter-Glo Luminescent cell viability assay (Promega) was used as a readout of viability.
(§12) For each cell line, optimal number of cells as determined above were seeded into 96-well plates on day 0. […] After 3d incubation in test condition medium, with daily medium changes, cell viability was determined using the CellTiter-Glo viability test. […]

A172 (glioblastoma) = assay: as above; conditions: increase in BOHB concentration (0, 4, 12 mM), no pyruvate, 3 d
Experimental: as §10, §11, §12

[2] = Medium A, normoxia and hypoxia, 16 mM BOHB alone
[3] = Medium C, 21 and 5% O2, 16 mM BOHB
[4] = Medium A, normoxia and hypoxia, 8 mM Acac compared to 8 mM LiCl control
[5] = Medium B, 21% O2, 8 mM Acac compared to 8 mM LiCl control
[6] = Medium C, 8 mM Acac alone compared to 8 mM LiCl control

Row | Structure (SMILES) | increased sensitivity to high levels of ketones (RCC4 renal carcinoma) | growth inhibitory effect (glioma cell line U118MG; [2]) | number of cells, % compared to C-medium without BOHB (glioma cell line U118MG; [3]) | growth inhibitory effect (glioma cell line A172; [2]) | number of cells, % of the amount in Medium B without BOHB (glioma cell line A172; Medium B, hypoxia, 16 mM BOHB) | number of cells, % compared to C-medium without BOHB (glioma cell line A172; [3]) | growth (glioma cell line A172; Medium C) | proliferation of cells (cell viability) [1] | proliferation of cells (cell viability) (A172 (glioblastoma)) | number of cells (glioma cell line U118MG; [4]) | number of cells (glioma cell line U118MG; [5]) | amounts of cells (glioma cell line U118MG; [6]) | number of cells (glioma cell line A172; [4]) | number of cells (glioma cell line A172; [5]) | amounts of cells (glioma cell line A172; [6])
1 | CC(O)CC(=O)[O-].[Na+] (racemic) [BOHB, DL-β-Hydroxybutyric acid sodium salt] | not found | no growth inhibitory effect | around 30% | no growth inhibitory effect | approximately 70% | around 30% | trend of reduced growth | suppresses the proliferation of cells | suppresses the proliferation of cells |  |  |  |  |  | 
2 | CC(=O)CC(=O)[O-].[Li+] [Acac, Lithium Acetoacetate] |  |  |  |  |  |  | trend of reduced growth |  |  | did not reduce the number of cells further | reduced the number of cells significantly | did not significantly reduce the amounts of cells | did not reduce the number of cells further | reduced the number of cells significantly | did not significantly reduce the amounts of cells
